Data as given in the NIST ThermoML archive (doi:10.1016/j.fluid.2016.11.010).

Columns and labels:
[1] = for vapor or sublimation pressure: Liquid, Transpiration method
[2] = Molar enthalpy of transition or fusion; conditions: Crystal; DSC

Cc1ccccc1-n1ccnc1 [1-(o-tolyl)-1H-imidazole]
[1]
Conditions	vapor or sublimation pressure [kPa]
313.3 K	0.00112
318.2 K	0.00165
323.2 K	0.00266
328.2 K	0.00389
333.2 K	0.00587
338.1 K	0.00828
343.1 K	0.01155
348.1 K	0.01711
353.1 K	0.02295
358 K	0.03338
363 K	0.04638

c1ccc(-n2ccnc2)cc1 [1-phenylimidazole]
[1]
Conditions	vapor or sublimation pressure [kPa]
298.7 K	0.00041
308.6 K	0.00105
313.5 K	0.00158
318.4 K	0.00254
319.1 K	0.00269
323.5 K	0.00393
328.5 K	0.00594
333.7 K	0.00902
338.4 K	0.01334
343.2 K	0.01799
348.2 K	0.02552
353.1 K	0.03567

Brc1ccccc1-n1ccnc1 [2-bromo-phenyl-1H-imidazole]
[1]
Conditions	vapor or sublimation pressure [kPa]
343.2 K	0.00369
348.2 K	0.00534
353.2 K	0.00754
358.1 K	0.01128
363.1 K	0.01573
368 K	0.0218
374 K	0.03122

Fc1ccccc1-n1ccnc1 [2-fluoro-phenyl-1H-imidazole]
[1]
Conditions	vapor or sublimation pressure [kPa]
323.2 K	0.0041
328.2 K	0.00615
333.2 K	0.00892
338.1 K	0.01364
343.1 K	0.01948
348.1 K	0.02761
353.1 K	0.03781
358.1 K	0.05311
363 K	0.0745
367.9 K	0.09597

COc1ccccc1-n1ccnc1 [2-methoxy-phenyl-1H-imidazole]
[1]
Conditions	vapor or sublimation pressure [kPa]
333.2 K	0.00084
338.3 K	0.00128
343.1 K	0.00192
348.1 K	0.00293
353 K	0.00409
358 K	0.00591
362.9 K	0.00864
367.9 K	0.01198
374.2 K	0.01855

Brc1ccc(-n2ccnc2)cc1 [4-bromo-phenyl-1H-imidazole]
[1]
Conditions	vapor or sublimation pressure [kPa]
343.3 K	0.00037
348.1 K	0.00065
353 K	0.00103
358.2 K	0.00174
363.2 K	0.00273
368.2 K	0.00467
374.1 K	0.00773

Conditions	Normal melting temperature [°C]
[1], Crystal, DTA	120.1

Conditions	Molar enthalpy of transition or fusion [kcal/mol]
[2]	6.84

Fc1ccc(-n2ccnc2)cc1 [4-fluoro-phenyl-1H-imidazole]
[1]
Conditions	vapor or sublimation pressure [kPa]
313 K	0.00108
318.4 K	0.00166
323.3 K	0.00268
328.2 K	0.00401
333.2 K	0.00563
335.7 K	0.00702
338.2 K	0.00834
340.7 K	0.01004
343.2 K	0.01191
345.6 K	0.01481
348.2 K	0.01727
353.1 K	0.02449
358.2 K	0.03573
363.2 K	0.04969
368.1 K	0.06685
373.1 K	0.09256

COc1ccc(-n2ccnc2)cc1 [4-methoxy-phenyl-1H-imidazole]
[1]
Conditions	vapor or sublimation pressure [kPa]
333.4 K	0.00061
338.2 K	0.00094
343.3 K	0.00147
348.2 K	0.00215
353.3 K	0.00328
358.3 K	0.00469
363.3 K	0.00695
368.2 K	0.00969
373.2 K	0.01433

Cc1ccc(-n2ccnc2)cc1 [4-methyl-phenyl-1H-imidazole]
[1]
Conditions	vapor or sublimation pressure [kPa]
328.3 K	0.00266
333 K	0.00399
338.1 K	0.00603
340.8 K	0.00739
345.7 K	0.01103
350.7 K	0.01582
355.7 K	0.02204
360.7 K	0.0313
365.6 K	0.04264
370.6 K	0.0608
375.3 K	0.07866
